Laboratory results reported in ChEMBL document CHEMBL6083286, “Discovery of ERD-12310A as an Exceptionally Potent and Orally Efficacious PROTAC Degrader of Estrogen Receptor α (ERα)” (J Med Chem, 2024).
Calls of active or inactive are those of the source. The calls are words filed in the database; no cut-off is given here.

Assays:
[1] = Half life in dog at 3 mg/kg, po or 1 mg/kg, iv measured upto 24 hrs by LC-MS/MS analysis; type: ADME, organism-based, Canis lupus familiaris; details: in vivo
[2] = target: T1, Estrogen receptor (Homo sapiens, UniProt P03372); test: Binding affinity to human ERalpha receptor assessed as inhibition constant
T1 sequence (P03372 whole entry): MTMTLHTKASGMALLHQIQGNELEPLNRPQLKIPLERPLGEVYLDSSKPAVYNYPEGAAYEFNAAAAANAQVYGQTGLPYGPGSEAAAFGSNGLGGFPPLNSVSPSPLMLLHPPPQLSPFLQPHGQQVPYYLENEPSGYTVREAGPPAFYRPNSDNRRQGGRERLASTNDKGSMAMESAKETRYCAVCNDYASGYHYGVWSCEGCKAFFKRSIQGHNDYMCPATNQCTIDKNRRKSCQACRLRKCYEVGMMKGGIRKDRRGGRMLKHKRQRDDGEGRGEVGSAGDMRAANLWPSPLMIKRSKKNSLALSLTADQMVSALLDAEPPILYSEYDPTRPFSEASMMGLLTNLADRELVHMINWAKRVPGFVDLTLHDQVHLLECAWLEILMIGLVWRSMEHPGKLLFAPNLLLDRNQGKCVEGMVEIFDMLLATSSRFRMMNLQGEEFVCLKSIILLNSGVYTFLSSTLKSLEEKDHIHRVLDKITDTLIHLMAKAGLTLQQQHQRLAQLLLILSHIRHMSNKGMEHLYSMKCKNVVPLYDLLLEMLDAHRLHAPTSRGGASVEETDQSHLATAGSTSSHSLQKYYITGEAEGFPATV

[3] = Half life in rat at 3 mg/kg, po or 1 mg/kg, iv measured upto 24 hrs by LC-MS/MS analysis; type: ADME, organism-based; details: in vivo
[4] = target: Cytochrome P450 2C19 (Homo sapiens, UniProt P33261); test: Inhibition of CYP2C19 in human liver microsomes incubated for 5 mins in presence of NADPH by LC-MS/MS analysis; type: ADME, Microsome
Sequence of Cytochrome P450 2C19 (P33261 whole entry): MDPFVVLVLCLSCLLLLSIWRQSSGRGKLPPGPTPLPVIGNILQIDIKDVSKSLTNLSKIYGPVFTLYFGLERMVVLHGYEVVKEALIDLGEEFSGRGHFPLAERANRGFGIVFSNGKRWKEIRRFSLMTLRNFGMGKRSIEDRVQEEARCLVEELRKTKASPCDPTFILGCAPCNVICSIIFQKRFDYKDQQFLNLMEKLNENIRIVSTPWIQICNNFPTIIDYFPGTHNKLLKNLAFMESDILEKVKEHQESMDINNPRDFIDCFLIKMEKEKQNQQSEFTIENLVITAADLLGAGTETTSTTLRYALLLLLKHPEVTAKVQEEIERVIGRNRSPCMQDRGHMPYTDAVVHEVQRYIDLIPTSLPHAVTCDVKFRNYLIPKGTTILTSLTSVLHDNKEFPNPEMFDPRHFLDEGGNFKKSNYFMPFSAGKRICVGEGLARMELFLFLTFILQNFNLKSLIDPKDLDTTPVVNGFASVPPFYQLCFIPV

[5] = Drug concentration in SCID mouse plasma at 10 mg/kg, po administered daily for 3 days and measured after 6 hrs by LC-MS/MS analysis; type: ADME, organism-based
[6] = target: T2, Protein cereblon/Estrogen receptor (Homo sapiens, UniProt P03372+Q96SW2); test: PROTAC activity at CRBN/ERalpha in human MCF7 cells assessed as reduction in ERalpha protein level measured after 12 hrs by Western blot analysis relative to control; type: cell-based
T2 sequence (Q96SW2 whole entry, looked up, one chain of several): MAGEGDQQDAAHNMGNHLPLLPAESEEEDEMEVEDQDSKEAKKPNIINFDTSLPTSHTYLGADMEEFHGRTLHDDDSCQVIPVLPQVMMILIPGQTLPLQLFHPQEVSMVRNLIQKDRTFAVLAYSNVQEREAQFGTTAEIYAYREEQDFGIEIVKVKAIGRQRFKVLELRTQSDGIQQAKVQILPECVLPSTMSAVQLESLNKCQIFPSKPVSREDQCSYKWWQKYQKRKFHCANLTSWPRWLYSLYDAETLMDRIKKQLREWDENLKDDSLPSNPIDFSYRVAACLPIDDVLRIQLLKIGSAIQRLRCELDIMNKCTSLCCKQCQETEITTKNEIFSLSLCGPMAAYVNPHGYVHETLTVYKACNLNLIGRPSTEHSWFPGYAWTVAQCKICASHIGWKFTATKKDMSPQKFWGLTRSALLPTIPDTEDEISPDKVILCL

[7] = target: T2, Protein cereblon/Estrogen receptor; test: PROTAC activity at CRBN/ERalpha in human MCF7 cells assessed as reduction in ERalpha protein level at 0.3 nM measured at 4 hrs by Western blot analysis; type: cell-based
[8] = target: T2, Protein cereblon/Estrogen receptor; test: In-vivo PROTAC activity at CRBN/ERalpha in SCID mouse xenografted with human MCF7 cells assessed as reduction in ERalpha level in tumor at 30 mg/kg, po administered daily for 3 days and measured after 24 hrs by Western blot analysis; type: functional, organism-based; design: scale not given: the % may be the effect or the level left; details: time 96.0 hrs
[9] = test system: T47D; test: PROTAC activity at CRBN/ ERalpha Y537S mutant in human T47D cells assessed as reduction in ERalpha protein level at 10 to 100 nM measured at 7 hrs by Western blot analysis; type: cell-based; design: scale not given: the % may be the effect or the level left; details: dose 10-100 nM
[10] = target: T2, Protein cereblon/Estrogen receptor; test: PROTAC activity at CRBN/ERalpha in human MCF7 cells assessed as reduction ER level measured for 5 hrs by Western blot analysis; type: cell-based; details: dose 0.5-500 nM
[11] = target: T2, Protein cereblon/Estrogen receptor; test: PROTAC activity at CRBN/ERalpha in human MCF7 cells assessed as reduction in ERalpha protein level at 5 nM measured for 4 hrs in presence of cereblon ligand C1 by Western blot analysis; type: cell-based
[12] = Drug concentration in SCID mouse plasma at 30 mg/kg, po administered daily for 3 days and measured after 24 hrs by LC-MS/MS analysis; type: ADME, organism-based
[13] = test system: MCF7; test: Antitumor activity against human MCF7 cells xenografted in SCID mouse assessed as tumor growth inhibition at 3 mg/kg, po administered for 41 to 76 days; type: functional; details: time 41-76 day, read-out: TGI
[14] = test system: MCF7; test: Antitumor activity against human MCF7 cells xenografted in SCID mouse assessed as tumor growth inhibition at 10 mg/kg, po administered for 41 to 76 days; type: functional; details: time 41-76 day, read-out: TGI
[15] = Volume of distribution at steady state in rat at 3 mg/kg, po or 1 mg/kg, iv measured upto 24 hrs by LC-MS/MS analysis; type: ADME, organism-based; details: in vivo
[16] = target: T3, Cytochrome P450 3A4 (Homo sapiens, UniProt P08684); test: Inhibition of CYP3A4 in human liver microsomes using midazolam as substrate preincubated for 5 mins followed by NADPH addition and measured after 10 mins by LC-MS/MS analysis; type: ADME, Microsome
T3 sequence (P08684 whole entry): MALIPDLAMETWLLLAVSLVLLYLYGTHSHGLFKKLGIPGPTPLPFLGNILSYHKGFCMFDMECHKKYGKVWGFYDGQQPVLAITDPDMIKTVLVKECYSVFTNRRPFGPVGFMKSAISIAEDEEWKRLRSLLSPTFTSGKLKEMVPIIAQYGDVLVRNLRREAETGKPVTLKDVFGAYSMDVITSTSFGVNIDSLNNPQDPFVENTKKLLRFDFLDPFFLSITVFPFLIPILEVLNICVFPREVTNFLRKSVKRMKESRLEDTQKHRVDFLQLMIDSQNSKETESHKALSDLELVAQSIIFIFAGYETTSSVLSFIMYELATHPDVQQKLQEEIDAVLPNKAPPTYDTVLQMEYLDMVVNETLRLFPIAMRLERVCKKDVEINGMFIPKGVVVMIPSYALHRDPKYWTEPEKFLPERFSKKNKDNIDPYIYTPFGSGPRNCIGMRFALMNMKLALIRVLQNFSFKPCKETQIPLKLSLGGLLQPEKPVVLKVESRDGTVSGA

[17] = Drug concentration in SCID mouse tumor at 30 mg/kg, po administered daily for 3 days and measured after 24 hrs by LC-MS/MS analysis; type: ADME, organism-based, Neoplasm; details: read-out: Ct
[18] = test system: MCF7; test: Antitumor activity against human MCF7 cells expressing ESR1 Y537S mutant xenografted in SCID mouse assessed as tumor growth inhibition at 10 mg/kg, po administered 5 days a week for 5 weeks; type: functional; details: MCF7, 840 h, read-out: TGI
[19] = Drug concentration in SCID mouse tumor at 10 mg/kg, po administered once daily for 3 days measured after 24 hrs by LC-MS/MS analysis; type: ADME, organism-based, Neoplasm
[20] = Stability in dog plasma assessed as half life; type: ADME, cell-free, Canis lupus familiaris
[21] = Drug concentration in SCID mouse tumor at 30 mg/kg, po administered once daily for 3 days measured after 24 hrs by LC-MS/MS analysis; type: ADME, organism-based, Neoplasm; details: read-out: Ct
[22] = Stability in mouse plasma assessed as half life; type: ADME, cell-free
[23] = Cmax in dog at 3 mg/kg, po or 1 mg/kg, iv measured upto 24 hrs by LC-MS/MS analysis; type: ADME, organism-based, Canis lupus familiaris; details: in vivo
[24] = Drug concentration in SCID mouse plasma at 10 mg/kg, po administered once daily measured at 24 hrs by LC-MS/MS analysis; type: ADME, organism-based
[25] = target: Cytochrome P450 2C9 (Homo sapiens, UniProt P11712); test: Inhibition of CYP2C9 in human liver microsomes incubated for 5 mins in presence of NADPH by LC-MS/MS analysis; type: ADME, Microsome
Sequence of Cytochrome P450 2C9 (P11712 whole entry): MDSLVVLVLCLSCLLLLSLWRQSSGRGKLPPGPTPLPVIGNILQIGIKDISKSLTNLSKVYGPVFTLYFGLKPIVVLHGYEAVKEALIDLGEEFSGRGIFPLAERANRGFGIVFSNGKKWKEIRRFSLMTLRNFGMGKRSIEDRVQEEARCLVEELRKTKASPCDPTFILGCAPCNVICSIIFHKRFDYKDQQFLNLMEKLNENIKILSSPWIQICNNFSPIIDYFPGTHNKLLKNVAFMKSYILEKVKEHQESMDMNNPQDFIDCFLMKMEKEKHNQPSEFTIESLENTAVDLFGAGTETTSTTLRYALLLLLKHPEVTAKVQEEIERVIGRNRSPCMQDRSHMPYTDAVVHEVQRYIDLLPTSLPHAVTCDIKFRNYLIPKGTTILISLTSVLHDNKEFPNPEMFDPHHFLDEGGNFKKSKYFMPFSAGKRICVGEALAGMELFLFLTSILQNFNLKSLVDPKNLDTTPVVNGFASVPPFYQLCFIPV

[26] = Metabolic stability mouse liver microsome assessed as half life; type: ADME; details: microsomes
[27] = target: T3, Cytochrome P450 3A4; test: Inhibition of CYP3A4 in human liver microsomes using testosterone as substrate preincubated for 5 mins followed by NADPH addition and measured after 10 mins by LC-MS/MS analysis; type: ADME, Microsome
[28] = target: T2, Protein cereblon/Estrogen receptor; test: In-vivo PROTAC activity at CRBN/ERalpha in SCID mouse xenografted with human MCF7 cells assessed as reduction in ERalpha level in tumor at 10 mg/kg, po administered daily for 3 days and measured after 6 hrs by Western blot analysis; type: functional, organism-based; design: scale not given: the % may be the effect or the level left; details: time 78.0 hrs
[29] = Half life in mouse at 3 mg/kg, po or 1 mg/kg, iv measured upto 24 hrs by LC-MS/MS analysis; type: ADME, organism-based; details: in vivo
[30] = target: T2, Protein cereblon/Estrogen receptor; test: PROTAC activity at CRBN/ERalpha in human MCF7 cells assessed as reduction in ERalpha protein level at 5 nM measured for 4 hrs in presence of PR-171 by Western blot analysis; type: cell-based
[31] = Oral bioavailability in dog at 3 mg/kg measured upto 24 hrs by LC-MS/MS analysis; type: ADME, organism-based, Canis lupus familiaris; details: in vivo

With `O=C1CC[C@H](N2Cc3c(ccc4c3OCC43CCN(C[C@@H]4CCC5(CCN(c6ccc([C@@H]7c8ccc(O)cc8CC[C@@H]7c7ccccc7)cc6)CC5)OC4)CC3)C2=O)C(=O)N1` the t1/2 [1] was 23.2 h, the Ki [2] was 0.00095 µM and the t1/2 [3] was 5.6 h. For the same compound, the IC50 [4] was 6 µM, the concentration at 78 h [5] was 380 ng/mL and the Emax [6] was 103%. The Activity [7] was “Active”, the Activity [8] was 29% and the Activity [9] was > 80%. The Activity [10] was “Dose-dependent-effect”, the Activity [11] was “inactive” and the concentration at 96 h [12] was 50 ng/mL. It also gave an inhibition in vivo at 3 mg/kg [13] of 93%, an inhibition in vivo at 10 mg/kg [14] of 94% and a Vdss [15] of 1.9 L/kg. The IC50 [16] was > 10 µM, the concentration at 96 h [17] was 1090 ng/mL and the inhibition in vivo at 10 mg/kg [18] was 75%. The concentration at 96 h [19] was 294 ng/mL, the t1/2 [20] was > 4 h and the concentration at 96 h [21] was 1030 ng/mL. For the same compound, the t1/2 [22] was > 4 h, the Cmax [23] was 469.4 ng/mL and the concentration at 24 h [24] was 7 ng/mL. The IC50 [25] was > 10 µM, the t1/2 [26] was > 1 h and the IC50 [27] was > 10 µM. For the same compound, the Activity [28] was 66%, the t1/2 [29] was 13.3 h and the Activity [30] was “inactive”. For the same compound, the F [31] was 49%.
